The source of these data is ChEMBL document CHEMBL1201862, “PubChem BioAssay data set” (2004).

Among the test systems are HCT-116; UACC-62; HOP-92; HCT-15; DU-145; K562; T47D; CCRF-CEM; 786-0; SF-295; SR; SNB-19; LOX IMVI; KM12; NCI/ADR-RES; NCI-H226; HCC 2998; A498; HT-29; NCI-H23.
What all share (assay): growth of human tumour cells (NCI), 48 h

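Results reflect a 48-hour exposure of cells in 96-well plates to compound at five concentrations. Here, GI50 denotes the concentration required for 50% inhibition of growth.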 The source made the active and inactive calls. Rule as the data show it: active = GI50 up to about 1.1 µM and inactive = higher. Where only a bound is given, the exact number is not on record here.

As to `COc1cc(C(c2cc3c(cc2O)OCO3)N2CCCCC2)cc(OC)c1OC` (stereo not given), the GI50 in the assay with HCT-116 is 15.4 µM (inactive); in the assay on UACC-62 it was 16.4 µM (inactive); with HOP-92, 9.25 µM (inactive); with HCT-15 it was 15.9 µM; in the assay on DU-145 it was 17.5 µM (inactive); in the assay with K562 it was 2.63 µM (inactive). The GI50 in the assay with T47D was 22.4 µM (inactive); with CCRF-CEM it was 1.85 µM (inactive); with 786-0 it was 5.86 µM (inactive); in the assay with SF-295, 41.5 µM (inactive); with SR, 2.33 µM (inactive); with SNB-19, 20.6 µM (inactive). Also, the GI50 in the assay on LOX IMVI is 14.8 µM (inactive); with KM12, 18.2 µM (inactive); in the assay on NCI/ADR-RES, 17.5 µM (inactive); in the assay on NCI-H226, 16.1 µM (inactive); in the assay on HCC 2998 it was 22.2 µM (inactive); with A498 it was 19.5 µM (inactive). The GI50 was 17 µM (inactive) with HT-29 and 15.2 µM (inactive) with NCI-H23.
Turning to `CCOc1ccc(-n2c(=O)c3nn4c(=O)n(-c5ccc(OCC)cc5)c(=O)c4nn3c2=O)cc1`, the GI50 is > 100 µM (inactive) in the assay on HCT-116; > 100 µM (inactive) in the assay with UACC-62; 30.9 µM (inactive) in the assay with HOP-92; greater than 100 µM in the assay with HCT-15; > 100 µM (inactive) with DU-145; > 100 µM (inactive) in the assay with K562. Further, the GI50 with T47D is > 100 µM (inactive); with CCRF-CEM it was > 10 µM (inactive); in the assay with 786-0, 70.1 µM (inactive); with SF-295, 43.3 µM (inactive); with SR, > 100 µM (inactive); with SNB-19 it was 63 µM (inactive). Besides, the GI50 was > 100 µM (inactive) in the assay on LOX IMVI; > 100 µM (inactive) in the assay on KM12; > 100 µM (inactive) with NCI/ADR-RES; > 100 µM (inactive) in the assay with NCI-H226; > 100 µM (inactive) in the assay on HCC 2998; 18.6 µM (inactive) in the assay with A498. The GI50 in the assay on HT-29 and with NCI-H23 was > 100 µM (inactive) each time.
Consider `C=C1C(=O)CC2C1CC(=O)/C(C)=C/CCC(C)(O)C2O` (stereo not given), for which the GI50 in the assay on HCT-116 is 3.86 µM (inactive); with UACC-62, 0.603 µM (active); in the assay with HOP-92, 8.67 µM (inactive); with HCT-15 it was 4.9 µM; in the assay on DU-145 it was 8.77 µM (inactive); with K562 it was 2.19 µM (inactive). Also, the GI50 in the assay on T47D is 1.74 µM (inactive); in the assay with CCRF-CEM it was 3.44 µM (inactive); with 786-0, 4.55 µM (inactive); in the assay with SF-295, 27.4 µM (inactive); with SR, 7.91 µM (inactive); in the assay with SNB-19, > 54.3 µM (inactive). Also, the GI50 was 5.47 µM (inactive) in the assay with LOX IMVI; 13.8 µM (inactive) with KM12; 8.2 µM (inactive) with NCI/ADR-RES; 30.9 µM (inactive) in the assay on NCI-H226; 7.74 µM (inactive) in the assay with HCC 2998; 1.19 µM (inactive) in the assay with A498. In addition, the GI50 in the assay on HT-29 was 14.6 µM (inactive); in the assay on NCI-H23, 8.17 µM (inactive).
For the compound `[N-]=[N+]=Nc1ccc2c(c1)Sc1ccccc1N2CCCCCl`, the GI50 in the assay on HCT-116 is 30.2 µM (inactive); in the assay with UACC-62, 99.8 µM (inactive); with HOP-92, 32.2 µM (inactive); in the assay on HCT-15 it was 81.3 µM; with DU-145 it was > 100 µM (inactive); in the assay with K562, 14 µM (inactive). In addition, the GI50 in the assay on T47D is 44.7 µM (inactive); in the assay with CCRF-CEM, 36.7 µM (inactive); in the assay with 786-0 it was > 100 µM (inactive); in the assay on SF-295, > 100 µM (inactive); in the assay on SR it was 30.9 µM (inactive); with SNB-19, > 100 µM (inactive). Besides, the GI50 was 36.8 µM (inactive) with LOX IMVI; 53.5 µM (inactive) with KM12; > 100 µM (inactive) in the assay on NCI/ADR-RES; 48.9 µM (inactive) in the assay on NCI-H226; 61.8 µM (inactive) with HCC 2998; > 100 µM (inactive) with A498. The values for the GI50 in the assay with HT-29 and in the assay with NCI-H23 were 20.1 µM (inactive) and 41.8 µM (inactive), respectively.
For the compound `O=C(CC(c1ccccc1)N1CCCCC1)c1ccccc1` (stereo not given), the GI50 is 7.31 µM (inactive) in the assay with HCT-116; 16.6 µM (inactive) in the assay with UACC-62; 15 µM (inactive) in the assay with HOP-92; 14.9 µM with HCT-15; 15.1 µM (inactive) in the assay with DU-145; 1.44 µM (inactive) with K562. Moreover, the GI50 was 17.9 µM (inactive) with T47D; 2.09 µM (inactive) in the assay with CCRF-CEM; 11.2 µM (inactive) in the assay on 786-0; 16.5 µM (inactive) in the assay on SF-295; 1.7 µM (inactive) in the assay on SR; 19.6 µM (inactive) with SNB-19. For the same compound, the GI50 in the assay with LOX IMVI is 5.66 µM (inactive); with KM12, 6.82 µM (inactive); in the assay with NCI/ADR-RES it was 22.5 µM (inactive); with NCI-H226, 18.4 µM (inactive); with HCC 2998, 4.62 µM (inactive); with A498, 15.6 µM (inactive). Besides, the GI50 with HT-29 was 13.8 µM (inactive); with NCI-H23, 16 µM (inactive).
As for `Nc1nc(Sc2ccc([N+](=O)[O-])cn2)c2nc[nH]c2n1`, the GI50 is 3.94 µM (inactive) with HCT-116; 2.94 µM (inactive) in the assay on UACC-62; 3.6 µM (inactive) with HOP-92; 9.55 µM in the assay on HCT-15; 3.32 µM (inactive) with DU-145; 7.01 µM (inactive) in the assay with K562. The GI50 in the assay with T47D is 4.36 µM (inactive); in the assay with CCRF-CEM, 2.77 µM (inactive); with 786-0 it was 5.74 µM (inactive); with SF-295, 9.46 µM (inactive); in the assay with SR, 3.46 µM (inactive); with SNB-19, 23.8 µM (inactive). In addition, the GI50 in the assay on LOX IMVI is 2.52 µM (inactive); in the assay with KM12, 7.38 µM (inactive); in the assay on NCI/ADR-RES it was 3.78 µM (inactive); in the assay with NCI-H226, 12.6 µM (inactive); in the assay on HCC 2998, 12.8 µM (inactive); in the assay with A498 it was 11.8 µM (inactive). Besides, the GI50 was 4.86 µM (inactive) in the assay with HT-29 and 8.05 µM (inactive) with NCI-H23.
Turning to `ONCCCn1cnc2c(NC3CC3)ncnc21`, the GI50 is > 100 µM (inactive) in the assay on HCT-116; > 100 µM (inactive) in the assay on UACC-62; > 100 µM (inactive) in the assay on HOP-92; greater than 100 µM in the assay on HCT-15; > 100 µM (inactive) in the assay on DU-145; > 100 µM (inactive) in the assay with K562. Moreover, the GI50 in the assay with T47D, in the assay with CCRF-CEM, in the assay on 786-0, in the assay with SF-295, with SR and with SNB-19 was > 100 µM (inactive) in each case. Further, the GI50 in the assay with LOX IMVI, in the assay on KM12, in the assay on NCI/ADR-RES, in the assay with NCI-H226, with HCC 2998 and in the assay with A498 was > 100 µM (inactive) throughout. In addition, the GI50 with HT-29 and in the assay on NCI-H23 was > 100 µM (inactive) in each case.
With `Cc1ccnc2[nH]c3ccccc3c(=O)c12`, the GI50 was 16.6 µM (inactive) in the assay with HCT-116; 16.9 µM (inactive) in the assay on UACC-62; 41.6 µM (inactive) in the assay with HOP-92; 25.5 µM with HCT-15; 30.2 µM (inactive) in the assay on DU-145; 33.2 µM (inactive) with K562. Moreover, the GI50 in the assay with T47D was 31.3 µM (inactive); with CCRF-CEM, 36.6 µM (inactive); with 786-0, 41.2 µM (inactive); with SF-295, 35.5 µM (inactive); in the assay with SR it was 11.5 µM (inactive); in the assay with SNB-19, 29.6 µM (inactive). Besides, the GI50 in the assay with LOX IMVI is 19.5 µM (inactive); with KM12, 13.1 µM (inactive); with NCI/ADR-RES, 28.6 µM (inactive); with NCI-H226 it was 24.7 µM (inactive); in the assay with HCC 2998 it was 19.9 µM (inactive); in the assay on A498, 28.8 µM (inactive). In addition, the GI50 is 15.7 µM (inactive) in the assay on HT-29 and 22.9 µM (inactive) with NCI-H23.
Regarding `Cc1ccc(C(=O)CC(O)(C(F)(F)F)C(F)(F)F)cc1[N+](=O)[O-]`, the GI50 with HCT-116 is 5.3 µM (inactive); in the assay on UACC-62 it was 8.55 µM (inactive); with HOP-92 it was 9.4 µM (inactive); with HCT-15 it was 3.92 µM; in the assay with DU-145, 6.22 µM (inactive); in the assay on K562, 2.79 µM (inactive). Besides, the GI50 is 13.5 µM (inactive) in the assay on T47D; 4.63 µM (inactive) with CCRF-CEM; 12.1 µM (inactive) in the assay on 786-0; 7 µM (inactive) with SF-295; 5.73 µM (inactive) in the assay on SR; 9.06 µM (inactive) with SNB-19. Further, the GI50 was 2.07 µM (inactive) with LOX IMVI; 2.19 µM (inactive) with KM12; 16.3 µM (inactive) in the assay with NCI/ADR-RES; 20.2 µM (inactive) with NCI-H226; 6.9 µM (inactive) with HCC 2998; 21.3 µM (inactive) in the assay on A498. The figures for the GI50 in the assay with HT-29 and in the assay on NCI-H23 were 1.87 µM (inactive) and 9.29 µM (inactive), respectively.
For `O=C(/C=C/c1ccc(O)c(O)c1)Oc1ccccc1`, the GI50 is 9.71 µM (inactive) in the assay with HCT-116; 13.2 µM (inactive) in the assay on UACC-62; 14.9 µM (inactive) in the assay with HOP-92; 2.74 µM in the assay on HCT-15; 13.2 µM (inactive) in the assay on DU-145; 4.27 µM (inactive) in the assay with K562. The GI50 is 9.71 µM (inactive) in the assay with T47D; 0.292 µM (active) with CCRF-CEM; 10.6 µM (inactive) in the assay with 786-0; 19.5 µM (inactive) in the assay with SF-295; 0.434 µM (active) with SR; 20.4 µM (inactive) in the assay with SNB-19. Moreover, the GI50 in the assay on LOX IMVI is 4.9 µM (inactive); with KM12 it was 9.29 µM (inactive); in the assay with NCI/ADR-RES it was 11.2 µM (inactive); with NCI-H226, 35.1 µM (inactive); with HCC 2998, 18.6 µM (inactive); with A498, 55 µM (inactive). Besides, the GI50 in the assay on HT-29 was 11.3 µM (inactive); in the assay on NCI-H23, 14.4 µM (inactive).
